This is an account of results in US7226730B1, “Transgenic animals and cell lines for screening drugs effective for the treatment or prevention of Alzheimer's Disease” (The General Hospital Corporation, priority 1997, dated 2007).

In the assay the test system is CYZ neuronal cells stably transfected with AD7c-NTP. The assay is described as follows: Crystal Violet viability assay in IPTG-induced AD7c-NTP expressing neuronal cells. The note with it: for effect on cell death (percent change in viability, induced over uninduced) / effect on nitric oxide synthase toxicity attributable to AD7c-NTP expression: CYZ cells induced to express AD7c-NTP, FIG. 12; for cell viability under oxidative stress toxins: LacB and LacF cells, 3 mM IPTG 24 or 48 hrs, toxin 6 or 24 hrs, vs LacA-control, FIGS. 10A and 10B.

Description: AD7c-NTP was cloned into a Lac-Switch expression vector (Stratgene), and CYZ neuronal cells were stably transformed with the construct. Several cell lines were selected that expressed AD7c-NTP at various levels, Lac A-Lac F, after induction of protein expression with IPTG.
Briefly, 10^4 cells/well were seeded into 96-well plates, and were induced to express AD7c-NTP for a period of 6–18 hrs; additionally, in some experiments, cells were exposed to toxins or protective agents for a similar period of time. At the end the treatment period, cells were fixed, permeabilized and immunostained with the appropriate antibody following the ABS procedure. Quantitation was done by incubating cells with a soluble chromagen, stopping the reaction with 2M H2SO4 and determining chromagen absorbance in an automated ELISA reading machine.
For Experiments determining cell viability, after culture and treatment as for the MICE assay, culture media was replaced with a Crystal Violet/PBS/formalin solution. After staining, cells were rinsed thoroughly and lysed with a PBS/1% SDS solution, and absorbance was determined with an automated ELSA reader. Results were graphed as percent viability.

With `OO` [Hydrogen peroxide], the “effect on cell death (percent change in viability, induced over uninduced)” value was “exacerbate cell death” and the “cell viability under oxidative stress toxins” value is “increased hypersensitivity”.

With `COC(=O)[C@@H](N)CCCNC(=N)N[N+](=O)[O-]` [L-NAME], the “effect on nitric oxide synthase toxicity attributable to AD7c-NTP expression” value is reported as “inhibit or reduce”.

In the case of `N=C(N)NCCC[C@H](N)C(=O)O` [L-arginine], the “effect on nitric oxide synthase toxicity attributable to AD7c-NTP expression” value is reported as “inhibit or reduce”.

Take `CCN(CC)C(=S)S` [diethyldithiocarbamic acid]: the “effect on cell death (percent change in viability, induced over uninduced)” value is “exacerbate cell death” and the “cell viability under oxidative stress toxins” value was “increased hypersensitivity”.
